Assay results from PMC6561244 (Proceedings of the National Academy of Sciences of the …, 2019).
pIC50: −log10 of the molar value.

Molecular target: T1, CKL4 (Arabidopsis thaliana, UniProt Q8LPI7)
T1 sequence (Q8LPI7 1-414): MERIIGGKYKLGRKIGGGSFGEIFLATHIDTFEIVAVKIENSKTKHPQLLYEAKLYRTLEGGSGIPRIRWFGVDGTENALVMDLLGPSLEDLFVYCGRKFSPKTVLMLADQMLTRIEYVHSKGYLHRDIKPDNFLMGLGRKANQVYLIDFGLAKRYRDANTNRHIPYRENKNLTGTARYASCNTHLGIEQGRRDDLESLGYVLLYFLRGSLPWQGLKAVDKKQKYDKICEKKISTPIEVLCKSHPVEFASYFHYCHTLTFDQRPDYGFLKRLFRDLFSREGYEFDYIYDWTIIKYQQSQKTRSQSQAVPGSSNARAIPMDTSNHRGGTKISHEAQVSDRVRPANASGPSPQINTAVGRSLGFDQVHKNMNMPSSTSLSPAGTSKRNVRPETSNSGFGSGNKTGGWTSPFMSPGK
Assay: in vitro kinase assay with isotope-labeled ATP
Assay type: biochemical

SMILES: O=C1NCCc2[nH]c(-c3ccncc3)cc21 [PHA767491]
- pIC50: ~5.30
